From patent US20210093558A1 (Bryn Pharma, LLC, priority 2018, published 2021)

System: histamine induced nasal congestion

NCCc1c[nH]cn1 [Histamine, histamine]
induction of nasal congestion (5% histamine aerosol for 5 minutes): induced congestion in all animals to varying degrees
nasal congestion and flow restriction pressure (5 and 10 minutes post-histamine exposure, Group 1): progressive increase in nasal congestion and flow restriction pressure
histamine induced congestion without epinephrine (pilot study, 60, 80 and 100 minute time points): remains elevated at significant levels
